The target in test [1] is bee venom phospholipase A2 (Apis mellifera, UniProt P00630). The test can be described thus: biochemical. The note with it: read-out: IC50 PLA2.
Test [2] has as its target phosphoinositide-specific phospholipase C. Nature of the test: Inhibition of phosphoinositide-specific phospholipase C assay (PLC). The class given is biochemical. From the text:
Inhibition of Phosphoinositide-specific Phospholipase C
The effect of compounds of this invention on phosphoinositide-specific phospholipase-C may be determined by procedures described by Bennett et al, Molecular Pharmacology 32:587-593 (1987).

The test system of test [3] is Ca2+ channel mobilization (TRH induced). Nature of the test: Calcium channel (mobilization) inhibition assay, TRH induced. The class given is cell-based. The note with it: for IC50: TRH induced calcium mobilization. From the text: (§1) Calcium Channel (Mobilization) Inhibition Assay
(§2) Polymorphonuclear leukocytes (PMNa), gastric glands, GH3 cells, A431 cells, spleen cells, human keratinocytes corneal cells, etc. were loaded with the Ca^2+ sensitive fluorescent dye, Fura-2. The appropriate cell type was chosen and the potency and efficacy of the anti-inflammatory furanones on calcium mobilization, calcium channel inhibition quantitated. The methods used for A431 cells listed below are representative of those used for other cells.
(§3) A431 cells were detached using a 5-10 min trypsin-EDTA treatment whereas GH3 cells were treated 2 to 5 min with a 1% pancreatin solution. Cells were immediately washed twice in a 20 mM HEPES buffer (pH 7.4) containing 120 mM NaCl, 6 mM KCl, 1 mM MgSO4, 1 mg/ml glucose and 1 mg/ml pyruvate and 1.4 mM calcium (medium A). Approximately 5×10^6 cells were suspended in medium A and incubated with 4 μM fura-2-AM for 15 min at 37° C.
Fluorescence was continuously recorded with a Perkin-Elmer LS-5 spectrofluorometer. The excitation wavelength was set at 340 nm and emission wavelength set at 500 nm. The cell suspension was continually stirred, maintained at 37° C. and equilibrated for approximately 5 min before addition of various agents. [Ca^2+ ]i was calculated using the following formula: [formula]
(§4) All fluorescence values were measured relative to a EGTA-quenched signal determined as follows: F was the relative fluorescence measurement of the sample. Fmax was determined by lysing the cells with digitonin (100 μg/ml) in DMSO. After Fmax was determined the pH was adjusted to 8, with NaOH and Ca^2+ chelated with 3 mM EGTA to totally quench the fura-2 signal and obtain Fmin.
(§5) When quin-2 was used, cells were Incubated with 10 μM quin-2 at 37° C. for 1 hr, washed and then used.
For orientation: Calcium flux is commonly read through the fluorescence of an indicator in the cells.

Test [4] relates to Ca2+ channel mobilization (KCl induced). Nature of the test: Calcium channel (mobilization) inhibition assay, KCl induced. The test is classed as cell-based.
Text: as §1, §2, §3
After washing the fura-2 loaded cells, the uptake of dye was checked using fluorescence micioscopy and found to be evenly distributed in the cytosol of all cells. Fluorescence was continuously recorded with a Perkin-Elmer LS-5 spectrofluorometer. The excitation wavelength was set at 340 nm and emission wavelength set at 500 nm. The cell suspension was continually stirred, maintained at 37° C. and equilibrated for approximately 5 min before addition of various agents. [Ca^2+ ]i was calculated using the following formula: [formula]
as §4, §5

Consider 3 compounds from US5376676A (Allergan, Inc., priority 1991, dated 1994).

Each structure is given as a SMILES string.

bee venom phospholipase A2, sequence (P00630 34-167 limits assumed): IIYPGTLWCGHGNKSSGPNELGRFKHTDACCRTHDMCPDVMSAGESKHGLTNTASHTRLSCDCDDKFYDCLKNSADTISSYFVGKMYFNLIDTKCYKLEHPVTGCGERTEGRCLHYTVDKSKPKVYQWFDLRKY

Turning to `CCCCCCCCCCCCCC1=CC(=O)OC1` [Compound 1, 4-tridecyl-2(5H)-furanone], the IC50 (commonly the concentration needed to halve the response being measured) was more than 3300 nM in test [1], more than 100000 nM in test [2], 2600 nM in test [3] and 1500 nM in test [4]. The “Selectivity between calcium channel inhibition and phospholipase inhibition” value in test [3] (conclusion from Table 1 (Ca2+ TRH/KCl vs PLA2, PLC)) was “selective calcium channel inhibitor”.
In the case of `CCCCCCCCCCCCCC1=CC(=O)OC1O` (stereo not drawn) [Compound 2, 4-tridecyl-5-hydroxy-2(5H)-furanone], the IC50 is 90 nM in test [1], more than 100000 nM in test [2], 3000 nM in test [3] and 3000 nM in test [4].
With `CC1=C(CC/C(C)=C/CCC2=CCC(C3=CC(=O)OC3O)OC2O)C(C)(C)CCC1` (stereo not drawn) [manoalide, reference compound], the IC50 was determined as 3000 nM in test [2], 600 nM in test [3] and 800 nM in test [4].
